Results on two molecules are retold here after publication PMC4467128 (Oncotarget, 2014).

Series [1] relates to Ramos cells. The series can be described thus: Ramos engraftment survival model in NOD/SCID mice. The note with it: daily oral gavage, MPT0E028 100 mg/kg, SAHA 200 mg/kg. It is filed as in vivo. The text has this: (§1) The mice were carefully maintained and all animal procedures were in accordance with the Institutional Animal Care and Use Committee procedures and guidelines. All animal experiments followed ethical standards, and protocols has been reviewed and approved by Animal Use and Management Committee of National Taiwan University (IACUC Approval No: 20100225).
In Ramos engrafment model, human B-cell lymphoma Ramos cells were resuspended at 10^7 cells/ml in culture medium at room temperature, and 2×10^6 cells were inoculated into male NOD/SCID mice via tail vein. Treatment began 1 week after engrafment. […] Survival rate was used as end point for this study.

Series [2] concerns p-Akt (S473) in BJAB cells. The series can be described thus: Cell-based ELISA for p-Akt (S473), BJAB. The settings on record: Homo sapiens, 24 h, mean ± SEM, read-out: IC50 (Akt dephosphorylation, p-Akt S473). The method, then: After the treatment, cells were lysed with ice-cold lysis buffer mentioned above and equivalent aliquots of protein were subjected to a PathScan phospho-Akt1 (Ser473) sandwich ELISA kit (Cell Signaling Technology) following manufacture's instruction. In briefly, whole cell lysate was first half-diluted with sample diluent and added 100 μl into the well incubating overnight at 4°C. After the reaction, wells were washed 4 times with 200 μl wash buffer and then added 100 μl of Akt1 mouse detection antibody incubating 1 h at 37°C. Washed 4 times again and then added 100 μl of anti-mouse IgG HRP-linked antibody incubating 30 min at 37°C. After incubation, washed the well once again and then added 100 μl TMB substrate for color production and finally added 100 μl STOP solution. The results were measured by spectrophotometer at wavelength 450 nm.
For orientation: ELISA stands for enzyme-linked immunosorbent assay.

For another series, the system named is BJAB tumors. Put plainly: BJAB xenograft tumor growth model in nude mice. It is filed as in vivo. The note with it: po, qd, 31 days. The procedure: as §1
In BJAB xenograft model, the male nude mice were injected subcutaneously with the same volume of BD Matrigel Matrix HC (BD bioscience, catalog 354248) and BJAB cells (2×10^7 cell/mouse) into the flank of each animal. […] Tumor size was measured twice weekly and calculated from V = 0.5 lw^2, where w = width (w) and l = length (l). At the end of study, tumors were carefully removed and frozen in liquid nitrogen for subsequent western analysis.

Series [3] relates to Ramos cells. Put plainly: MTT cell viability assay, Ramos B-cell lymphoma cells. It is filed as cell-based. The settings on record: Homo sapiens, 24 h, mean ± SEM, read-out: IC50 (growth inhibition). The method, then: (§2) Two fast-growing malignant B cell lymphoma (Burkitt lymphoma) cell lines and human umbilical vein endothelial cells (HUVEC) were used. Ramos and HUVEC cells were purchased from American Type Culture Collection (Manassas, VA, USA) and BJAB cells were a kind gift from Professor Ping-Ning Hsu (National Taiwan University Hospital and National Taiwan University, College of Medicine, Taipei, Taiwan). […] All cells were maintained in humidified air containing 5% CO2 at 37°C. Cell density was maintained between 1×10^5 and 1×10^6 cell/ml and passaged every 2 to 3 days.
(§3) Cell viability was assessed by MTT assay. […] After the treatment, 100 μl of 0.5 mg/ml 3-(4,5-Dimethylthiazol-2-yl)-2,5-diphenyl-tetrazolium bromide (MTT) were added to each well and incubated at 37°C to stained cells forming an insoluble blue formazan product. After 1 h incubation, 100 μl of extraction reagent (0.1M sodium acetate buffer or DMSO) were added to each well and mix thoroughly to lyse cells. The plates were then measured at 550 nm using an enzyme-linked immunosorbent assay (ELISA) reader (Packard, Meriden, CT, USA).
For orientation: Formazan colour is commonly taken as a measure of viable cells.

The next series relates to HDAC1, 2, 6, and 8. The note with it: range over the four isoforms; cited from earlier work.
In series [4] the test system is HDAC enzyme activity in Ramos cells. Put plainly: Cell-based HDAC fluorescence activity assay, Ramos. The note with it: Homo sapiens, 24 h, read-out: IC50 (HDAC enzyme activity).
Protocol: (§4) After the incubation, the lysine developer in this kit was added and the mixture was incubated for another 30 min at 37°C.
Series [5] concerns HDAC enzyme activity in BJAB cells. The series can be described thus: Cell-based HDAC fluorescence activity assay, BJAB. The settings on record: Homo sapiens, 24 h, read-out: IC50 (HDAC enzyme activity).
Protocol: as §4
The next series deals with HUVEC cells. The series can be described thus: MTT cell viability assay, normal HUVEC cells. It is filed as cell-based. The note with it: Homo sapiens, 24 h, read-out: IC50 (cell viability, toxicity). The procedure:
as §2, §3

The next series concerns HDAC4. The settings on record: cited from earlier work.
Series [6] can be described thus: Body weight of BJAB tumor bearing mice. It is filed as in vivo. The note with it: nude mice, 50-200 mg/kg, po, qd, 31 days. The procedure: The mice were carefully maintained and all animal procedures were in accordance with the Institutional Animal Care and Use Committee procedures and guidelines. […] Tumor size was measured twice weekly and calculated from V = 0.5 lw^2, where w = width (w) and l = length (l). At the end of study, tumors were carefully removed and frozen in liquid nitrogen for subsequent western analysis.

The target of a further series is Akt (Homo sapiens, UniProt P31749). Put plainly: Enzyme-based Akt kinase activity assay (Kinome Diversity Screen, ELISA quantitation). It is filed as biochemical. The note with it: crosstide substrate. The procedure:
In briefly, Akt activity was assayed using human recombinant insect Sf21 cells for Akt kinase source and crosstide peptide ([…], 15 μg/mL) as a substrate. Cell lysate was incubated with kinase assay buffer (50 mM HEPES pH 7.4, 10 mM MgCl2, 0.2 mM Na3VO4, and 1 mM DTT) for 60 min at 25°C, and analyzed by ELISA quantitation of Crosstide-P.

The test system of the next series is BJAB cells. Put plainly: MTT cell viability assay, BJAB B-cell lymphoma cells. It is filed as cell-based. The note with it: Homo sapiens, 24 h, mean ± SEM, read-out: IC50 (growth inhibition). The procedure: as §2, §3

Sequence of Akt (P31749 whole entry): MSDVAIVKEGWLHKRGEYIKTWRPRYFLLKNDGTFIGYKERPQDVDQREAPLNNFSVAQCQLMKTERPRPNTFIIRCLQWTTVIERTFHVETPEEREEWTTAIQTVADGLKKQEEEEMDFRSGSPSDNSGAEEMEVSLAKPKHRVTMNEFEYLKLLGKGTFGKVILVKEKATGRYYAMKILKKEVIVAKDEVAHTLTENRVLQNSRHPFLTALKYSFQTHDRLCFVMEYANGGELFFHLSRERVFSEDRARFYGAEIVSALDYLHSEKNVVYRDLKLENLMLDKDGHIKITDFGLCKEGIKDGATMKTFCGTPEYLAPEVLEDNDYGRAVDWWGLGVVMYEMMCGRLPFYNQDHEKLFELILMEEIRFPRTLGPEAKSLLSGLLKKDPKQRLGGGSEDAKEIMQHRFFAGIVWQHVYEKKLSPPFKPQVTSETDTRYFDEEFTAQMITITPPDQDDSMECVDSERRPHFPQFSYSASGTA

Turning to `O=C(CCCCCCC(=O)Nc1ccccc1)NO` [SAHA, reference compound], the “Survival rate compared with control group” value in the series on Ramos cells [1] is “no significant efficacy”. In addition, the IC50 (commonly the midpoint of a concentration-inhibition curve) in [2] was determined as 32.9 ± 11.3 µM. Besides, the inhibition of tumour growth (TGI) – broadly, how far tumour growth fell short of that in controls – with BJAB tumors (200 mg/kg) came out at 17.9%.
As to `O=C(C=Cc1ccc2c(c1)CCN2S(=O)(=O)c1ccccc1)NO` [MPT0E028, 3-(1-Benzenesulfonyl-2,3-dihydro-1H-indol-5-yl)-N-hydroxy-acrylamide], the “Survival rate compared with control group” value in the series with Ramos cells [1] is recorded as “significantly prolonged”. The IC50 in series [2] is 5.9 ± 1.6 µM; with Ramos cells [3], 0.65 ± 0.1 µM; with HDAC1, 2, 6, and 8, 0.0295 to 2.53 µM; in [4] it was 2.88 ± 1.9 µM; in series [5] it was 4.54 ± 1.2 µM; in the series on HUVEC cells, more than 30 µM. Also, the values for the IC50 against Akt and in the series on BJAB cells were 5.78 µM and 1.45 ± 0.5 µM, respectively. Moreover, the values for the TGI in the series on BJAB tumors (100 mg/kg) and with BJAB tumors (200 mg/kg) were 20.8% and 40.4%, respectively. Further, the “effect upon HDAC4” value with HDAC4 is given as “no effect”. Further, the “Body weight difference between groups” value in [6] is listed as “no significant difference in body weight”.
